Earlier results in paper PMC4346355 (Journal of computer-aided molecular design, 2014).
Read-outs that look alike come from different tables or passages of the source. Blank lines part the entries; values can stand above or below the compound they belong to.

Columns and labels:
[1] = target: HIV integrase catalytic core domain core4H (additional Y131D mutation); settings: read-out: SPR KD (core4H)
[2] = target: LEDGF-integrase interaction; settings: assay not named
[3] = target: strand transfer activity of HIV integrase
[4] = system: interaction of LEDGF with integrase
[5] = system: HIV-1 infection of MT-4 cells; settings: read-out: EC50 HIV-1 infection of MT-4 cells
[6] = system: HIV-1 infection of PBMC cells; settings: read-out: EC50 HIV-1 infection of PBMC cells

Structure (SMILES): CC[C@H](C)NC(=O)c1ccccc1CN(C)Cc1ccc2c(c1C(=O)O)OCO2 [Compound 3ZSZ]
Kd [1]: > 2000 µM

Structure (SMILES): O=C(NCC1CCCCC1)c1cc(S(=O)(=O)N2CCCCC2)cc(O)c1O [N-(cyclohexylmethyl)-2,3-dihydroxy-5-(piperidin-1-ylsulfonyl) benzamide]
IC50 [2]: 8 µM
IC50 ([3]; read-out: IC50 strand transfer): 19 µM

Structure (SMILES): CN(Cc1ccccc1C(=O)NCC1CCCCC1)Cc1ccc2c(c1C(=O)O)OCO2 [Compound 3ZSY]
Kd [1]: > 2000 µM

inhibition in active site directed strand transfer assay [3]: 0.14 µM
inhibition in AlphaScreen assay for binding at the LEDGF site [4]: 36 µM
Structure (SMILES): COc1cccc2c1c(/C(O)=C/C(=O)C(=O)O)cn2Cc1ccc(F)cc1 [CHI-1043]

Structure (SMILES): C=CCN(Cc1ccccc1C(=O)NCc1ccccc1)Cc1ccc2c(c1C(=O)O)OCO2 [Compound 3ZSX]
Kd [1]: 1060 µM

IC50 ([3]; read-out: IC50 inhibition of strand transfer activity): 19.5 µM
IC50 ([4]; assay not given, series assayed in AlphaScreen): 1.37 µM
Structure (SMILES): CCCC(C(=O)O)c1c(C)nc2ccc(Cl)cc2c1-c1ccccc1 (centres unmarked) [CX04328]
EC50 [5]: 2.73 µM
EC50 [6]: 3.45 µM
